# Experimental data as given in publication doi:10.1101/520460v1, “Chromokinesins NOD and KID Use Distinct ATPase Mechanisms and Microtubule Interactions to Perform a Similar Function” (biorxiv, 2019).
# Target: T1, KID (Homo sapiens, UniProt Q14807)
# T1 construct: gene KIF22; Glu-C V8 protease added in crystallization
# T1 sequence (Q14807 40-400): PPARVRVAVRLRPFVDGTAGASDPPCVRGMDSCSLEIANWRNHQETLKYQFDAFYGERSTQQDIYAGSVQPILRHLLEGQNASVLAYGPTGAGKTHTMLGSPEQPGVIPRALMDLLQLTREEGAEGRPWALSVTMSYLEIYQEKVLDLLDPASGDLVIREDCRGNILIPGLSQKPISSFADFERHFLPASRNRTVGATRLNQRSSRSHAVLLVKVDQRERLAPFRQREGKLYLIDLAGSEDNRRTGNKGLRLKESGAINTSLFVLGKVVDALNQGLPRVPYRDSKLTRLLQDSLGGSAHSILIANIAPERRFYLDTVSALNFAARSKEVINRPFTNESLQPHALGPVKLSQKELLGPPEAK
# Experiment: X-ray crystal structure of the complex
# Type: binding
# Details: crystals from 3.2 M NaCl, 0.1 M Tris pH 8.5, 291 K, 5 molar fold MgADP
compound,measurement,value
Nc1ncnc2c1ncn2[C@@H]1O[C@H](COP(=O)(O)OP(=O)(O)O)[C@@H](O)[C@H]1O [ADP],X-ray crystal structure of the complex,We solved the X-ray crystal structure of the KID catalytic domain in the ADP state
